Source: patent US11464770B2, “Anticancer pharmaceutical composition” (NATIONAL CANCER CENTER, priority 2016, dated 2022)
Read-outs that look alike come from different tables or passages of the source.

Assays:
[1] = test system: blood cancer cell lines (e.g. HL-60, Jurkat, Raji, Ramos, Daudi, MOLT-4); assay: Cell based assay, cell viability (CellTiter-Glo), blood cancer cell lines; details: Homo sapiens
Method: (§1) Commercially available bladder cancer, prostate cancer, lung cancer, breast cancer, blood cancer, pancreatic cancer, colorectal cancer, brain cancer, neuroblastoma, melanoma, liver cancer, cervical carcinoma, ovarian cancer, renal cancer, and papilloma cell lines were each treated with trypsin-EDTA and cultured, followed by being seeded in each well of a 96 well plate. After 24 hours of treatment at constant temperature, the respective cells were treated with the candidate compound so that a final concentration became 0 to 2 μM. The treated cells were additionally cultured for 72 hours, and cell viability was measured by using an ATP detection method (CellTiter-Glo® Luminescent Cell Viability Assay, Promega).

[2] = test system: bladder cancer cell lines; assay: Cell based assay, cell viability (CellTiter-Glo), bladder cancer cell lines
Method: as §1

[3] = test system: cervical carcinoma cell lines; assay: Cell based assay, cell viability (CellTiter-Glo), cervical carcinoma cell lines; details: Homo sapiens; HeLa cells
Method: as §1, with “After 24 hours of treatment at constant temperature, the respective cells were treated with the candidate compound so that a final concentration became 0 to 2 μM.” left out

[4] = MV4-11, blood cancer cell line MV-4-11, 72 hours, read-out: IC50, MV-4-11
[5] = blood cancer cell line Daudi, 72 hours, read-out: IC50, Daudi
[6] = blood cancer cell line HL-60, 72 hours, read-out: IC50, HL-60
[7] = blood cancer cell line Jurkat, 72 hours, read-out: IC50, Jurkat
[8] = blood cancer cell line MOLT-4, 72 hours, read-out: IC50, MOLT-4
[9] = blood cancer cell line Raji, 72 hours, read-out: IC50, Raji
[10] = blood cancer cell line Ramos (RA 1), 72 hours, read-out: IC50, Ramos (RA 1)
[11] = blood cancer cell line U-937, 72 hours, read-out: IC50, U-937
[12] = 253J cells, 72 hours treatment, 0 to 2 μM, CellTiter-Glo, read-out: IC50, bladder cancer cell line 253J
[13] = 5637 cells, 72 hours treatment, 0 to 2 μM, CellTiter-Glo, read-out: IC50, bladder cancer cell line 5637
[14] = Homo sapiens, T-24, T24 cells, 72 hours treatment, 0 to 2 μM, CellTiter-Glo, read-out: IC50, bladder cancer cell line T24
[15] = Homo sapiens, J82 cells, 72 hours treatment, 0 to 2 μM, CellTiter-Glo, read-out: IC50, bladder cancer cell line J82
[16] = Homo sapiens, UMUC3, UM-UC-3 cells, 72 hours treatment, 0 to 2 μM, CellTiter-Glo, read-out: IC50, bladder cancer cell line UM-UC-3
[17] = Homo sapiens, KU-19-19 cells, 72 hours treatment, 0 to 2 μM, CellTiter-Glo, read-out: IC50, bladder cancer cell line KU-19-19
[18] = MBT-2 cells, 72 hours treatment, 0 to 2 μM, CellTiter-Glo, read-out: IC50, bladder cancer cell line MBT-2

Compound | IC50 [1, 4] [nM] | IC50 [1, 5] [nM] | IC50 [1, 6] [nM] | IC50 [1, 7] [nM] | IC50 [1, 8] [nM] | IC50 [1, 9] [nM] | IC50 [1, 10] [nM] | IC50 [1, 11] [nM] | IC50 [2, 12] [nM] | IC50 [2, 13] [nM] | IC50 [2, 14] [nM] | IC50 [2, 15] [nM] | IC50 [3] [µM] | IC50 [2, 16] [nM] | IC50 [2, 17] [nM] | IC50 [2, 18] [nM] | IC50 ([2]; 253J cells, 72 hours, cell viability (CellTiter-Glo), read-out: IC50, 253J bladder cancer cell line) [nM] | IC50 ([2]; 5637 cells, 72 hours, cell viability (CellTiter-Glo), read-out: IC50, 5637 bladder cancer cell line) [nM] | IC50 ([2]; Homo sapiens, T-24, T24 cells, 72 hours, cell viability (CellTiter-Glo), read-out: IC50, T24 bladder cancer cell line) [nM] | IC50 ([2]; Homo sapiens, J82 cells, 72 hours, cell viability (CellTiter-Glo), read-out: IC50, J82 bladder cancer cell line) [nM]
CC(=O)c1c([S+]([O-])Cc2ccccc2)nc2c(Br)ccc(Cl)c2c1O (centres unmarked) [Compound 4] | 1610 | > 2000 | 1980 | 1070 | 1370 | 1150 | 1760 | 1240 | 1000 | 1910 | 1310 | > 2000 | > 10 | – | – | – | – | – | – | –
CCS(=O)(=O)n1c([S+](C)[O-])c(C(C)=O)c(=O)c2c(Cl)ccc(Br)c21 (centres unmarked) [Compound 39, 3-acetyl-8-bromo-5-chloro-1-(ethylsulfonyl)-2-(methylsulfinyl)quinolin-4(1H)-one] | > 2000 | > 2000 | > 2000 | > 2000 | > 2000 | > 2000 | > 2000 | > 2000 | > 2000 | > 2000 | > 2000 | > 2000 | > 10 | > 2000 | > 2000 | > 2000 | – | – | – | –
CC(=O)c1c(SCc2ccccc2)n(C(=O)c2ccc(Br)cc2)c2c(Br)ccc(Cl)c2c1=O [Compound 23, 3-acetyl-2-(benzylthio)-8-bromo-1-(4-bromobenzoyl)-5-chloroquinolin-4(1H)-one] | > 2000 | > 2000 | > 2000 | > 2000 | > 2000 | > 2000 | > 2000 | > 2000 | > 2000 | > 2000 | > 2000 | > 2000 | > 10 | > 2000 | > 2000 | > 2000 | – | – | – | –
CC(=O)c1c(SCc2cc(F)cc(F)c2)[nH]c2c(Br)ccc(Cl)c2c1=O [Compound 45, 3-acetyl-8-bromo-5-chloro-2-((3,5-difluorobenzyl)thio)quinolin-4(1H)-one] | > 2000 | > 2000 | > 2000 | > 2000 | > 2000 | > 2000 | > 2000 | > 2000 | > 2000 | > 2000 | > 2000 | > 2000 | > 10 | > 2000 | > 2000 | > 2000 | – | – | – | –
COCCNc1ccc(C[S+]([O-])c2[nH]c3c(Br)ccc(Cl)c3c(=O)c2C(C)=O)cn1 (centres unmarked) [Compound 105, 3-acetyl-8-bromo-5-chloro-2-(((6-((2-methoxyethyl)amino)pyridin-3-yl)methyl)sulfinyl)quinolin-4(1H)-one] | > 2000 | > 2000 | > 2000 | > 2000 | > 2000 | > 2000 | > 2000 | > 2000 | > 2000 | > 2000 | > 2000 | > 2000 | > 2 | – | – | – | – | – | – | –
CC(=O)c1c([S+]([O-])Cc2cnc3[nH]ccc3c2)[nH]c2c(Br)ccc(Cl)c2c1=O (centres unmarked) [Compound 107, 2-(((1H-pyrrolo[2,3-b]pyridin-5-yl)methyl)sulfinyl)-3-acetyl-8-bromo-5-chloroquinolin-4(1H)-one] | > 2000 | > 2000 | > 2000 | > 2000 | > 2000 | > 2000 | > 2000 | > 2000 | – | – | – | – | > 2 | – | – | – | > 2000 | > 2000 | > 2000 | > 2000
CC(=O)c1c(Sc2ccc(Br)cc2)[nH]c2c(Br)ccc(Cl)c2c1=O [Compound 16, 3-acetyl-8-bromo-2-((4-bromophenyl)thio)-5-chloroquinolin-4(1H)-one] | > 2000 | > 2000 | > 2000 | > 2000 | > 2000 | > 2000 | > 2000 | > 2000 | > 2000 | > 2000 | > 2000 | > 2000 | > 10 | > 2000 | > 2000 | > 2000 | – | – | – | –
COc1cccc2[nH]c(SCc3ccc(S(F)(F)(F)(F)F)cc3)c(C(C)=O)c(=O)c12 [Compound 92, 3-acetyl-5-methoxy-2-((4-(pentafluoro--sulfanyl)benzyl)thio)quinolin-4(1H)-one] | > 2000 | > 2000 | > 2000 | > 2000 | > 2000 | > 2000 | > 2000 | > 2000 | > 2000 | > 2000 | > 2000 | > 2000 | > 10 | > 2000 | > 2000 | > 2000 | – | – | – | –
